Data from patent US10428083B2, “Heterocyclylmethyl-thienouracile as antagonists of the adenosine-A2B-receptor” (BAYER PHARMA AKTIENGESELLSCHAFT, priority 2015, dated 2019).

Molecular target: human adenosine A2b receptor (Homo sapiens (Human), UniProt P29275)
Test: Cellular in vitro reporter gene test for A2b receptor activity (CHO-K1, CRE-luciferase, NECA stimulation)
Assay type: cell-based
Details: recombinant CHO-K1 cell line, CRE-luciferase reporter, antagonism of EC50 concentration of NECA; in some cases means of several determinations, rounded to two significant figures; read-out: A2b receptor IC50
Experimental: B-1. Cellular In Vitro Tests for Determining A2b Receptor Activity and Adenosine Receptor Selectivity
In the case of the A2a and A2b cell lines, this is a minimal promoter having a plurality of cAMP-responsive elements (CRE). Stimulation of the Gs-coupled A2b or A2a receptors by NECA ultimately leads, via formation of cAMP, to CRE-dependent induction of luciferase expression, which is detected 3 hours after the start of the incubation with NECA using a detection solution in a suitable luminometer. For testing the antagonists, initially, in a pre-experiment, the concentration of NECA which, at the test day in question, results in half-maximum stimulation of luciferase expression (EC50 concentration) is determined. By joint incubation of this EC50 concentration of NECA with the substances to be tested, it is possible to determine their antagonistic activity.

human adenosine A2b receptor, sequence (P29275 whole entry): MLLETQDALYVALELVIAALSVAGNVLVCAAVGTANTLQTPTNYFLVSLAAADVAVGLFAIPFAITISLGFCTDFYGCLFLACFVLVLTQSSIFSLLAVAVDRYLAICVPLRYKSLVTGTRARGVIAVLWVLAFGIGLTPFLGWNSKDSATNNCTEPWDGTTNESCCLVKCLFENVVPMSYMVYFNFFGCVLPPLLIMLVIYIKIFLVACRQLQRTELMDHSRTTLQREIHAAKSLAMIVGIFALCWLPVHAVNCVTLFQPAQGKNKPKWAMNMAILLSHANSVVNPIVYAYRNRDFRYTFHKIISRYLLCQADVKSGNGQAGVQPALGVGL

Row | SMILES | IC50
1 | CCn1c(=O)c2c(C)c(CN3CCC(C)C3=O)sc2n(CCC(F)(F)F)c1=O (racemic) [Example 6, 3-Ethyl-5-methyl-6-[(3-methyl-2-oxopyrrolidin-1-yl)methyl]-1-(3,3,3-trifluoropropyl)thieno[2,3-d]pyrimidine-2,4(1H,3H)-dione (racemate)] | 8 nM
2 | CCn1c(=O)c2c(C)c(CN3CC(NC(=O)OC(C)(C)C)CC3=O)sc2n(CCC(F)(F)F)c1=O (racemic) [Example 8, tert-Butyl (1-{[3-ethyl-5-methyl-2,4-dioxo-1-(3,3,3-trifluoropropyl)-1,2,3,4-tetrahydrothieno[2,3-d]pyrimidin-6-yl]methyl}-5-oxopyrrolidin-3-yl)carbamate (racemate)] | 120 nM
3 | CCn1c(=O)c2c(C)c(CN3CC(N)CC3=O)sc2n(CCC(F)(F)F)c1=O (racemic) [Example 9, 6-[(4-Amino-2-oxopyrrolidin-1-yl)methyl]-3-ethyl-5-methyl-1-(3,3,3-trifluoropropyl)thieno[2,3-d]pyrimidine-2,4(1H,3H)-dione (racemate)] | 97 nM
4 | CCn1c(=O)c2c(C)c(CN3C(=O)CCC3C)sc2n(CCC(F)(F)F)c1=O (racemic) [Example 10, 3-Ethyl-5-methyl-6-[(2-methyl-5-oxopyrrolidin-1-yl)methyl]-1-(3,3,3-trifluoropropyl)thieno[2,3-d]pyrimidine-2,4(1H,3H)-dione (racemate)] | 7 nM
5 | CCn1c(=O)c2c(C)c(CN3CCNC3=S)sc2n(CC2CCO2)c1=O (racemic) [Example 34, 3-Ethyl-5-methyl-1-(oxetan-2-ylmethyl)-6-[(2-thioxoimidazolidin-1-yl)methyl]thieno[2,3-d]pyrimidine-2,4(1H,3H)-dione (racemate)] | 10 nM
6 | CCn1c(=O)c2c(C)c(CN3CCNC3=S)sc2n(CC2CCCO2)c1=O (racemic) [Example 35, 3-Ethyl-5-methyl-1-(tetrahydrofuran-2-ylmethyl)-6-[(2-thioxoimidazolidin-1-yl)methyl]thieno[2,3-d]pyrimidine-2,4(1H,3H)-dione (racemate)] | 6.3 nM
7 | CCn1c(=O)c2c(C)c(CN3CCNC3=S)sc2n(CC2CCCCO2)c1=O (racemic) [Example 36, 3-Ethyl-5-methyl-1-(tetrahydro-2H-pyran-2-ylmethyl)-6-[(2-thioxoimidazolidin-1-yl)methyl]thieno[2,3-d]pyrimidine-2,4(1H,3H)-dione (racemate)] | 38 nM
8 | CCn1c(=O)c2c(C)c(CN3CCNC3=O)sc2n(CC2CC2(F)F)c1=O (racemic) [Example 54, 1-[(2,2-Difluorocyclopropyl)methyl]-3-ethyl-5-methyl-6-[(2-oxoimidazolidin-1-yl)methyl]thieno[2,3-d]pyrimidine-2,4(1H,3H)-dione (racemate)] | 4.1 nM
9 | CCn1c(=O)c2c(C)c(CN3CCNC3=O)sc2n(CC(C)OC)c1=O (racemic) [Example 62, 3-Ethyl-1-(2-methoxypropyl)-5-methyl-6-[(2-oxoimidazolidin-1-yl)methyl]thieno[2,3-d]pyrimidine-2,4(1H,3H)-dione (racemate)] | 72 nM
10 | CCn1c(=O)c2c(C)c(CN3CCNC3=O)sc2n(CC2CCO2)c1=O (racemic) [Example 65, 3-Ethyl-5-methyl-1-(oxetan-2-ylmethyl)-6-[(2-oxoimidazolidin-1-yl)methyl]thieno[2,3-d]pyrimidine-2,4(1H,3H)-dione (racemate)] | 12 nM
11 | CCn1c(=O)c2c(C)c(CN3CCNC3=O)sc2n(CC2CCCO2)c1=O (racemic) [Example 68, 3-Ethyl-5-methyl-6-[(2-oxoimidazolidin-1-yl)methyl]-1-(tetrahydrofuran-2-ylmethyl)thieno[2,3-d]pyrimidine-2,4(1H,3H)-dione (racemate)] | 8.9 nM
12 | CCn1c(=O)c2c(C)c(CN3CCNC3=O)sc2n(CC2CCCCO2)c1=O (racemic) [Example 71, 3-Ethyl-5-methyl-6-[(2-oxoimidazolidin-1-yl)methyl]-1-(tetrahydro-2H-pyran-2-ylmethyl)thieno[2,3-d]pyrimidine-2,4(1H,3H)-dione (racemate)] | 70 nM
13 | CCn1c(=O)c2c(C)c(CN3CCNC3=O)sc2n(CC2CCOC2)c1=O (racemic) [Example 73, 3-Ethyl-5-methyl-6-[(2-oxoimidazolidin-1-yl)methyl]-1-(tetrahydrofuran-3-ylmethyl)thieno[2,3-d]pyrimidine-2,4(1H,3H)-dione (racemate)] | 79 nM
14 | Cc1c(CN2CCNC2=O)sc2c1c(=O)n(CC(C)C)c(=O)n2CC1CCOC1 (racemic) [Example 90, 3-Isobutyl-5-methyl-6-[(2-oxoimidazolidin-1-yl)methyl]-1-(tetrahydrofuran-3-ylmethyl)thieno[2,3-d]pyrimidine-2,4(1H,3H)-dione (racemate)] | 12 nM
15 | COCCn1c(=O)n(CC(C)OC)c(=O)c2c(C)c(CN3CCNC3=O)sc21 (racemic) [Example 99, 1-(2-Methoxyethyl)-3-(2-methoxypropyl)-5-methyl-6-[(2-oxoimidazolidin-1-yl)methyl]thieno[2,3-d]pyrimidine-2,4(1H,3H)-dione] | 17 nM
16 | CCn1c(=O)c2c(C)c(Cn3ncn(CC(O)CO)c3=O)sc2n(CCOC(F)(F)F)c1=O (racemic) [Example 115, 6-{[4-(2,3-Dihydroxypropyl)-5-oxo-4,5-dihydro-1H-1,2,4-triazol-1-yl]methyl}-3-ethyl-5-methyl-1-[2-(trifluoromethoxy)ethyl]thieno[2,3-d]pyrimidine-2,4(1H,3H)-dione] | 31 nM
17 | Cc1c(CN2CCNC(=O)C2=O)sc2c1c(=O)n(CC(F)(F)F)c(=O)n2CC1CCO1 (racemic) [Example 123, 6-[(2,3-Dioxopiperazin-1-yl)methyl]-5-methyl-1-(oxetan-2-ylmethyl)-3-(2,2,2-trifluoroethyl)thieno[2,3-d]pyrimidine-2,4(1H,3H)-dione] | 53 nM
18 | CCn1c(=O)c2c(C)c(Cn3[nH]ccc3=O)sc2n(CC2CCCO2)c1=O (racemic) [Example 129, 3-Ethyl-5-methyl-6-[(5-oxo-2,5-dihydro-1H-pyrazol-1-yl)methyl]-1-(tetrahydrofuran-2-ylmethyl)thieno[2,3-d]pyrimidine-2,4(1H,3H)-dione] | 19 nM
19 | Cc1c(Cn2[nH]ccc2=O)sc2c1c(=O)n(C(C)C)c(=O)n2CC1CCCO1 (racemic) [Example 134, 3-Isopropyl-5-methyl-6-[(5-oxo-2,5-dihydro-1H-pyrazol-1-yl)methyl]-1-(tetrahydrofuran-2-ylmethyl)thieno[2,3-d]pyrimidine-2,4(1H,3H)-dione] | 30 nM
20 | Cc1c(CN2CCNC2=S)sc2c1c(=O)n(CC(C)C)c(=O)n2CC1CCO1 (racemic) [Example 146, 3-Isobutyl-5-methyl-1-(oxetan-2-ylmethyl)-6-[(2-thioxoimidazolidin-1-yl)methyl]thieno[2,3-d]pyrimidine-2,4(1H,3H)-dione] | 11 nM
21 | Cc1c(CN2CCNC2=S)sc2c1c(=O)n(CC(F)(F)F)c(=O)n2CC1CCO1 (racemic) [Example 154, 5-Methyl-1-(oxetan-2-ylmethyl)-6-[(2-thioxoimidazolidin-1-yl)methyl]-3-(2,2,2-trifluoroethyl)thieno[2,3-d]pyrimidine-2,4(1H,3H)-dione] | 7.1 nM
22 | Cc1c(CN2CCNC2=S)sc2c1c(=O)n(CC(F)(F)F)c(=O)n2CC1CCCO1 (racemic) [Example 157, 5-Methyl-1-(tetrahydrofuran-2-ylmethyl)-6-[(2-thioxoimidazolidin-1-yl)methyl]-3-(2,2,2-trifluoroethyl)thieno[2,3-d]pyrimidine-2,4(1H,3H)-dione] | 5.7 nM
23 | Cc1c(CN2CCNC2=S)sc2c1c(=O)n(CC(F)F)c(=O)n2CC1CCCO1 (racemic) [Example 162, 3-(2,2-Difluoroethyl)-5-methyl-1-(tetrahydrofuran-2-ylmethyl)-6-[(2-thioxoimidazolidin-1-yl)methyl]thieno[2,3-d]pyrimidine-2,4(1H,3H)-dione] | 7.9 nM
24 | CCn1c(=O)c2c(C)c(CN3CCN(C(C)C)C3=S)sc2n(CC2CCCO2)c1=O (racemic) [Example 175, 3-Ethyl-6-[(3-isopropyl-2-thioxoimidazolidin-1-yl)methyl]-5-methyl-1-(tetrahydrofuran-2-ylmethyl)thieno[2,3-d]pyrimidine-2,4(1H,3H)-dione] | 53 nM
25 | Cc1c(CN2CCNC2=O)sc2c1c(=O)n(C(C)C)c(=O)n2CC1CCO1 (racemic) [Example 183, 3-Isopropyl-5-methyl-1-(oxetan-2-ylmethyl)-6-[(2-oxoimidazolidin-1-yl)methyl]thieno[2,3-d]pyrimidine-2,4(1H,3H)-dione] | 17 nM
26 | Cc1c(CN2CCNC2=O)sc2c1c(=O)n(C(C)C)c(=O)n2CC1CCCO1 (racemic) [Example 186, 3-Isopropyl-5-methyl-6-[(2-oxoimidazolidin-1-yl)methyl]-1-(tetrahydrofuran-2-ylmethyl)thieno[2,3-d]pyrimidine-2,4(1H,3H)-dione] | 13 nM
27 | CCC(C)n1c(=O)c2c(C)c(CN3CCNC3=O)sc2n(CCOC)c1=O (racemic) [Example 190, 3-sec-Butyl-1-(2-methoxyethyl)-5-methyl-6-[(2-oxoimidazolidin-1-yl)methyl]thieno[2,3-d]pyrimidine-2,4(1H,3H)-dione] | 38 nM
28 | Cc1c(CN2CCNC2=O)sc2c1c(=O)n(CC(C)C)c(=O)n2CC1CCO1 (racemic) [Example 194, 3-Isobutyl-5-methyl-1-(oxetan-2-ylmethyl)-6-[(2-oxoimidazolidin-1-yl)methyl]thieno[2,3-d]pyrimidine-2,4(1H,3H)-dione] | 15 nM
